Measurements taken from publication PMC6278378, “Virtual Screening, Biological Evaluation, and 3D-QSAR Studies of New HIV-1 Entry Inhibitors That Function via the CD4 Primary Receptor” (Molecules, 2018).
“Also recorded” adds a separate entry of the source.

Columns and labels:
CD4 = target: T1, CD4 (Homo sapiens, UniProt P01730); test: CD4 competitive binding assay (FITC anti-human CD4 antibody, SUP-T1 cells)
T1 construct: endogenous in cells; host or cells: SUP-T1 cells
Procedure: We chose CD4-expressing SUP-T1 cells to perform the competitive CD4 binding assay. Non-labeled anti-human CD4 antibody (RPA-T4 clone, BioLegend, San Diego, CA, USA) was used as a positive control.
The SUP-T1 cells were cultured in RPMI1640 medium supplemented with 10% (v/v) fetal bovine serum (FBS), 100 IU penicillin, 0.1 mg/mL streptomycin, and 2 mM L-glutamine. After collecting and washing twice with fluorescence activated cell sorting (FACS) buffer (0.5% BSA, 0.05% sodium azide in PBS) by centrifugation, SUP-T1 cells were seeded in a 96-well v-bottom plate at 5 × 10^5 cells/well. The supernatant was discarded by centrifugation and the cell pellet was resuspended with 50 μL various 2× concentrations of test compounds and 50 μL fluorescein isothiocyanate (FITC) labeled anti-human CD4 antibody (RPA-T4 clone, BioLegend, San Diego, CA, USA). The plate was incubated for 40 min on ice. After incubation, the cells were washed twice with FACS buffer by centrifugation, and then resuspended with the assay buffer. The FACS buffer was added at a volume of 50 μL per well. The fluorescence (485EX/528EM) was recorded using a Synergy II plate reader (BioTek Instruments, Inc., Winooski, VT, USA). Experimental data were generated in duplicate each time, and from at least three independent experiments. The mean values of fluorescence were normalized and expressed as a percentage of the control group values. Binding curves and IC50 values were calculated by GraphPad Prism 7 (GraphPad Software Inc., La Jolla, CA, USA) and presented as the mean ± SEM.

PBMCs = test: PBMC viability assay (CellTiter-Blue); assay type: cell-based; conditions: up to 150 μM
Procedure: We employed a cell viability assay to test the potential cytotoxicity of 3. In parallel with the anti-HIV-1 assay described above, the same densities of PBMCs were seeded and treated with the test compounds for the same duration.
Blood samples were collected from healthy donors and diluted with an equal amount of 1× PBS. Approximately 15 mL Ficoll was transferred to a sterile 50 mL tube, and then overlaid with 15 mL diluted blood. After centrifugation (Centrifuge 5810R, Eppendorf, Hamburg, Germany) at 1800 rpm for 30 min at room temperature, the PBMCs were obtained and washed twice with 40 mL 1× PBS by centrifugation (1100 rpm, 10 min for each time) at room temperature. Cell pellets were resuspended in 50 mL RPMI 1640 supplemented with 10% FBS and 100 μg/mL Phytohemagglutinin (PHA, Sigma-Aldrich, St. Louis, MO, USA) and cultured for 24 h at 37 °C with 5% CO2. […]
In addition to the anti-HIV assays described above, the same numbers of PBMCs were seeded and treated with the test compounds for the same periods. After a 24 h incubation at 37 °C, the cell viability was determined using the CellTiter-Blue (Promega Co., Madison, WI, USA) cell viability assay. The fluorescence (560EX/590EM) was recorded using a Synergy II microplate reader.

HIV-1 NL4-3 strain = test: Anti-HIV-1 infection assay (CEM-GFP reporter cells, GFP fluorescence); assay type: cell-based; conditions: Human immunodeficiency virus 1, NL43, HIV-1 NL4-3, 4-5 days
Text: We performed anti-HIV-1 infection and anti-HIV-1 entry assays by measuring GFP expression and intracellular p24 antigen level. For the anti-HIV-1 infection assays, the CEM-GFP reporter cell line was used, and HIV-1 infection induced a 10- to 1000-fold increase in the relative fluorescence of the cells.
The CEM-GFP cells were obtained from the NIH AIDS program (NIH AIDS Reagent Program, Division of AIDS, NIAID, NIH: CEM-GFP Cells from Dr. Jacques Corbeil) and cultured in RPMI 1640 medium containing 10% FBS, 1% penicillin-streptomycin (Life Technologies, Carlsbad, CA, USA), 1% 200 mM L-glutamine (Mediatech-VWR, Aurora, CO, USA), and 500 µg/mL G418 (BioPioneer Inc, San Diego, CA, USA). After collecting and counting, the CEM-GFP cells were infected with HIV-1 NL4-3 strain (MOI 0.01) at 37 °C for 2–3 h, cells were then washed twice with PBS, and 10^5 cells/well were seeded into a 96-well plate in the presence of different concentrations of test compounds. After culturing at 37 °C with 5% CO2 for 4 or 5 days, the GFP fluorescence (485EX/528EM) was measured using a Synergy II microplate reader (BioTek Instruments, Inc., Winooski, VT, USA).

HIV-1 (NL4-3 strain) = test: microbe, parasite or virus in culture; assay type: cell-based; conditions: Human immunodeficiency virus 1, NL43, PBMC; PBMCs, HIV-1 NL4-3, 24 h; read-out: IC50, HIV-1 entry inhibition (intracellular p24)
Procedure: We also performed anti-HIV-1 entry assays to investigate the potential suppression by 3 of HIV-1 infection via its entry mechanism.
The Anti-HIV-1 entry assay was performed by measuring intercellular p24 antigen. Before the infection, PBMCs (2.5 × 10^6 cells/mL) were added into 96-well plates at 100 μL/well, then co-incubated with compounds of various concentrations for 2 h. PBMCs were then washed twice with PBS and infected with the NL4-3 strain of HIV-1 at an MOI of 0.02 for 2 h at 37 °C with 5% CO2 (CO2 incubator, Eppendorf, Hamburg, Germany). After two washes with PBS (1200 rpm, 20 °C, 5 min), the cells were re-suspended in 100 µL complete medium and incubated for 24 h. Subsequently, the PBMCs were washed and resuspended in 100 µL/well lysis buffer containing 1% protease inhibitor cocktail (Sigma-Aldrich, St. Louis, MO, USA). The intercellular p24 antigen was measured according to the protocol provided with the HIV-1 ELISA kit (PerkinElmer Inc. Waltham, MA, USA).

HIV-1 = tested on: HIV-1; parameters: method as in PMID 12207905; conditions: inactive or weakly active; cited from earlier work
SUP-T1 cells = test: SUP-T1 cell viability assay; assay type: cell-based; conditions: up to 200 μM
Procedure: We also performed a cell viability assay to test the potential cytotoxicity of 3. In parallel with the competitive CD4 binding assay described above, the same densities of SUP-T1 cells were seeded and treated with the test compounds for the same duration.

[1] = tested on: various cancer cell lines; parameters: method as in PMID 26474275, PMID 22524450; conditions: 100 μM; by increasing intracellular ROS level; cited from earlier work

O=C(O)CCc1c2ccc(=O)c(O)c-2oc2c(O)c(O)ccc12 [Compound 3, 3-(4,5,6-trihydroxy-3-oxo-3H-xanthen-9-yl) propanoic acid]
inhibition at 100 µM (CD4; 100 μM, inhibition of anti-human CD4 antibody binding to SUP-T1 cells): 94.9%
IC50 (CD4; SUP-T1 cells, anti-human CD4 antibody competition): 45 µM
PInhibition (Experimental Data) (CD4; transformed from % inhibition at 100 μM, presented as -ln): 5.273
Cytotoxicity in PBMCs (PBMCs): without a cytotoxicity effect; also recorded: no cytotoxicity; also recorded: did not show an ability to affect cell growth
IC50 (HIV-1 NL4-3 strain): 10 µM
IC50 (HIV-1 (NL4-3 strain)): 9 µM
protection in anti-HIV-1 infection assay (HIV-1): 0–49%
Cytotoxicity in SUP-T1 cell viability assay (SUP-T1 cells): no cytotoxicity
Cytotoxicity in SUP-T1 cell viability assay (SUP-T1 cells; listed as NSC119915): not showing any cytotoxicity
growth inhibition of cancer cell lines [1]: inhibit the growth
